Data on one compound can be found in patent US4175081A, “5-Substituted thiadiazole ureas” (priority 1977, dated 1979).

Each structure is given as a SMILES string.

The subject of data set [1] is Sinapis. The data set can be described thus: Field test, pre-emergence application. Conditions: reading 0 = no effect, 10 = completely killed, 14 and 20 days. In kind it is in vivo. On the procedure:
Tests have also been made for the compound of Example 1 with Sinapis, oats and wheat. This test was conducted according to the following procedure.
Forty rows, 70 feet long, were planted to weeds and crops. Two rows were planted on each bed. Beds were 40 inches apart from center to center. The two rows were about 10 inches apart on each bed. Beds were rolled prior to planting to provide a uniform smooth surface. Soil temperature at a depth of 11/2 inches was 66° F. at time of planting. Post-emergence applications were made by spraying bands across rows 10 feet wide using a self-propelled plot sprayer with a 10 foot boom equipped with Teejet 8001 flat spray nozzle tips and operated at 40 psi. A total of 84 fluid ounces of spray material was applied to three replicates. Each replicate plot was 10 feet wide by 66.67 feet long. […]
Eight days after the application, readings were made on the effect of the chemicals on each crop and weed in the post-emergence treatment. A reading of 0 was recorded if no effect was observed; 10 recorded if the plants were completely killed, and readings of 1 to 9 for intermediate kills. A second reading of the post-emergence treatments was made 14 days after the application.
Readings were made 14 and 20 days after the pre-emergence application.

Data set [2] can be described thus: Acute oral toxicity in rats. The following applies: rat, in vivo.
In data set [3] the test system is Barnyard grass (BG). The data set can be described thus: Pre-emergence herbicide test. Conditions: Echinochloa crus-galli, 336 h, two weeks after treatment. In kind it is in vivo. In short, it runs like this:
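Greenhouse pre-emergence spray test: pots seeded one day before treatment received compound at rates of 8 or 4 lb/acre (38 gal/acre). Visual injury/control scores for Echinochloa crus-galli taken at two weeks, with watering by sub-irrigation only.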

In data set [4] the test system is Bean (BN). The data set can be described thus: Post-emergence herbicide test. Format: in vivo, Phaseolus vulgaris var. Black Valentine. Conditions: Phaseolus vulgaris, post-emergence, 336 h, two weeks after treatment. In short, it runs like this:
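Bean seedlings (Phaseolus vulgaris var. Black Valentine) were grown in potting soil in 3' pots until the primary leaves expanded. They were then sprayed under a hood with a removable belt and fixed nozzle, using 50 ml formulations. Afterward they were returned to the greenhouse and watered only by sub-irrigation. Percent control was judged visually two weeks after treatment.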

The subject of data set [5] is Cotton (CT). Nature of the data set: Post-emergence herbicide test. Format: in vivo, Gossypium hirsutum var. DPL smooth leaf. The following applies: Gossypium hirsutum, post-emergence, 336 h, two weeks after treatment. In short, it runs like this: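 This greenhouse post-emergence test measured how well spray treatments controlled cotton. Seedlings of Gossypium hirsutum var. DPL smooth leaf, with expanded cotyledons and a first true leaf 1' in length, were sprayed with 50 ml formulations in a belt-fed spray hood. They were then returned to the greenhouse and watered only by sub-irrigation. Injury was scored visually as % control after two weeks.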

The term LD50 denotes the dose at which mortality reaches 50%. A higher LD50 goes with lower toxicity. In general, pest or weed control refers to how far the test organism was held down. Take `CNC(=O)Nc1nnc(C(F)(F)F)s1` [Example 1, 1-Methyl-3-[5-Trifluoromethyl-2-(1,3,4-Thiadiazolyl)] Urea]: the “Pre-emergency activity, % control, Sinapis” value in data set [1] (1 lb/acre) and in data set [1] (2 lbs/acre) was 10 rating score (0–10 scale) each time. Also, the LD50 in data set [2] worked out at 436 mg/kg. Besides, the pest or weed control at 4483.4 g/ha came to 90% in data set [3] (4 lb/acre), 100% in data set [4] (4 lb/acre) and 100% in data set [5] (4 lb/acre). In addition, the pest or weed control at 8966.8 g/ha in data set [3] (8 lb/acre) was found to be 90%; in data set [4] (8 lb/acre), 100%; in data set [5] (8 lb/acre) it was 100%. The pest or weed control at 2241.7 g/ha in data set [4] (2 lb/acre) and in data set [5] (2 lb/acre) was 100% throughout.
